Measured values published in PubChem BioAssay (NCI).
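The compound was tested at five concentrations on cells cultured in 96-well plates, with a 48-hour exposure period. GI50 = concentration required for 50% inhibition of growth. TGI denotes the concentration required for complete inhibition of growth.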

How the values were obtained:
Assay in all cases: DTP human tumour cell line panel, 48 h
NCI-H226 lung = system: NCI-H226 lung
DMS 114 small cell lung = system: DMS 114 small cell lung
HCC-2998 colon = system: HCC-2998 colon
RPMI-8226 leukemia = system: RPMI-8226 leukemia
OVCAR-4 ovarian = system: OVCAR-4 ovarian
XF 498 CNS = system: XF 498 CNS
SNB-78 CNS = system: SNB-78 CNS
A498 renal = system: A498 renal
CAKI-1 renal = system: CAKI-1 renal
TK-10 renal = system: TK-10 renal
LXFL 529 NSCLC = system: LXFL 529 NSCLC

| SMILES | TGI (NCI-H226 lung) | TGI (DMS 114 small cell lung) | TGI (HCC-2998 colon) | TGI (RPMI-8226 leukemia) | TGI (OVCAR-4 ovarian) | TGI (XF 498 CNS) | TGI (SNB-78 CNS) | TGI (A498 renal) | TGI (CAKI-1 renal) | TGI (TK-10 renal) | TGI (LXFL 529 NSCLC) | GI50 (NCI-H226 lung) | GI50 (DMS 114 small cell lung) | GI50 (HCC-2998 colon) | GI50 (RPMI-8226 leukemia) | GI50 (OVCAR-4 ovarian) | GI50 (XF 498 CNS) | GI50 (SNB-78 CNS) | GI50 (LXFL 529 NSCLC) | GI50 (TK-10 renal) |
| --- | --- | --- | --- | --- | --- | --- | --- | --- | --- | --- | --- | --- | --- | --- | --- | --- | --- | --- | --- | --- |
| O=C1CSc2sc(=S)sc2S1 | > 100 µM | > 100 µM | > 100 µM | > 100 µM | > 100 µM | > 100 µM | 99.2 µM | > 78.6 µM | – | – | – | – | – | – | – | – | – | – | – | – |
| CN(CCNC(=O)c1cn(C)c2c1ccc1cc(Cl)ccc12)CCNC(=O)c1cn(C)c2c1ccc1cc(Cl)ccc12 | 77.8 µM | – | – | – | 3.68 µM | – | – | 14.5 µM | 4.99 µM | 18.2 µM | – | – | – | – | – | – | – | – | – | – |
| Cc1ccc(NC(=O)CC(=O)n2nc(-c3ccccc3)c(N=Nc3ccccc3C(=O)O)c2-c2ccccc2)cc1 | > 100 µM | – | > 100 µM | > 100 µM | > 100 µM | – | – | – | > 100 µM | > 100 µM | > 100 µM | – | – | – | – | – | – | – | – | – |
| CC1C(O)[C@@]2(OC[C@@]34C(=O)CC5(O)[C@H](CCC6Cc7nc8c(nc7C[C@]65C)CC5CC[C@@H]6C7=C[C@H]9O[C@@]%10(O[C@@](C)(CO)C[C@@H]%10O)C(C)[C@@]9(O)[C@]7(C)[C@@H](O)CC6[C@]5(C)C8)C3=CC[C@H]4C2C)OC1(C)C (some centres undefined) | > 3.55 µM | 0.0942 µM | > 3.55 µM | < 0.000355 µM | > 3.55 µM | – | 3.44 µM | 0.00105 µM | 0.977 µM | – | – | – | – | – | – | – | – | – | – | – |
| COC[C@@H]1Cc2cc(OC)c3c(c2[C@H](c2ccc(OC)c(OC)c2)[C@H]1COC)OCO3 | – | > 100 µM | > 100 µM | – | – | > 100 µM | – | > 100 µM | – | > 100 µM | > 100 µM | – | – | – | – | – | – | – | – | – |
| Nc1nccc2c1ncn2C1C=C(CO)C(O)C1O (centres undefined) | > 1000 µM | > 1000 µM | > 1000 µM | > 1000 µM | > 1000 µM | > 1000 µM | > 1000 µM | – | – | > 1000 µM | > 1000 µM | > 1000 µM | 2.18 µM | 3.28 µM | 243 µM | > 1000 µM | 817 µM | > 1000 µM | > 1000 µM | 29.4 µM |
| O=[P+](O)c1cccs1 | – | > 100 µM | – | > 100 µM | – | > 100 µM | – | > 100 µM | > 100 µM | > 100 µM | > 100 µM | – | – | – | – | – | – | – | – | – |
